Source: patent US9682089B2, “Methods and compositions for stimulating reepithelialisation during wound healing” (Institut National de la Sante et de la Recherche Medicale …, priority 2010, dated 2017)

Legend:
ENaC = assay: real-time PCR analysis of ENaC subunit gene expression in skin of K5-MR neonates; format: in vivo, mouse; conditions: K5-MR pups; pregnant mice were given canrenoate
Description: We took advantage of the K5-MR mouse model to question whether expression of ENaC and its main regulators may be altered by MR overexpression. Skin samples from control and K5-MR neonates were processed for real-time PCR analysis of gene expression.

[1] = tested on: keratinocyte outgrowth of skin explants; assay: ex vivo wound healing assay: organotypic culture of newborn mouse skin explants, keratinocyte outgrowth; format: cell-based; conditions: 0.1 mM in culture medium, 7 days culture

C[C@]12CCC(=O)C=C1C=C[C@@H]1[C@@H]2CC[C@@]2(C)[C@H]1CC[C@@]2(O)CCC(=O)O [potassium canrenoate]
enhanced skin mRNA expression of all 3 subunits of ENaC (abnormal pattern of expression) (ENaC): blunted
impaired keratinocyte outgrowth of the explants ([1]; skin explants from K5-MR pups (MR overexpression in basal keratinocytes)): partially but significantly improved
keratinocyte outgrowth of the explants ([1]; skin explants from control pups): no effect
